Activity calls are given as the source filed them. The rule behind the calls is not given here.
Columns and labels:
[1] = target: von Hippel-Lindau disease tumor suppressor/GTPase KRas (Homo sapiens, UniProt P01116+P40337, G12D); assay: PROTAC activity at VHL/KRAS G12D mutant in human ASPC1 cells assessed as induction of protein degradation incubated for 24 hrs by Western blot analysis; type: cell-based
[2] = system: von Hippel-Lindau disease tumor suppressor/GTPase KRas (Homo sapiens), P01116+P40337 [G12D]; assay: PROTAC activity at VHL/KRAS G12D mutant in human ASPC1 cells assessed as induction of protein degradation incubated for 24 hrs by Western blot analysis relative to control; type: cell-based
Sequence of von Hippel-Lindau disease tumor suppressor/GTPase KRas (Homo sapiens), P01116+P40337 [G12D] (P01116 whole entry G12D): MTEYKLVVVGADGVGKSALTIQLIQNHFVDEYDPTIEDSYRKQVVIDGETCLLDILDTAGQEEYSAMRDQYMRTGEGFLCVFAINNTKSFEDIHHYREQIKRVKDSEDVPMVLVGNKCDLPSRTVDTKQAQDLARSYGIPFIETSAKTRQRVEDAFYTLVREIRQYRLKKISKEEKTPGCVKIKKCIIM
Sequence of von Hippel-Lindau disease tumor suppressor/GTPase KRas (Homo sapiens), P01116+P40337 [G12D] (P40337 whole entry partner): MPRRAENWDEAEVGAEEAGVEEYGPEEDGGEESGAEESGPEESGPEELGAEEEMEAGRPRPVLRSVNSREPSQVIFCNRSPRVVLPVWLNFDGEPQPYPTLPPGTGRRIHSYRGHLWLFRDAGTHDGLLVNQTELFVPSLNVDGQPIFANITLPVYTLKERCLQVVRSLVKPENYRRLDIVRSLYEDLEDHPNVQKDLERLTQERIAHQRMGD

GTPase KRas = GTPase KRas (Homo sapiens, UniProt P01116, G12D); assay: Inhibition of KRAS G12D mutant (unknown origin) preincubated for 15 mins followed by SOS1/EDA-GTP-DY-647P1 addition measured after 30 mins by HTRF assay
Sequence of GTPase KRas (P01116 whole entry G12D): as the sequence (P01116 whole entry G12D) above

[3] = Competitive binding affinity to His-tagged VHL/Elongin C/Elongin B (unknown origin) by FP assay; design: species or system Homo sapiens
[4] = Competitive binding affinity to His-tagged VHL/Elongin C/Elongin B/KRAS G12D mutant (unknown origin) by FP assay; design: species or system Homo sapiens
[5] = Cooperativity factor alpha, ratio of IC50 for His-tagged VHL/Elongin C/Elongin B (unknown origin) to IC50 for His-tagged VHL/Elongin C/Elongin B/KRAS (unknown origin)
Homo sapiens = organism: Homo sapiens; assay: Binding affinity to His-tagged VHL/Elongin C/Elongin B/GST-tagged KRAS G12D mutant (unknown origin) incubated for 1 hr by HTRF assay
[6] = system: von Hippel-Lindau disease tumor suppressor/GTPase KRas (Homo sapiens), P01116+P40337 [G12D]; assay: PROTAC activity at VHL/KRAS G12D mutant in human ASPC1 cells assessed as induction of protein degradation at 1 to 10 uM incubated for 7 hrs by Western blot analysis; type: cell-based; conditions: dose 1-10 µM
ASPC1 [7] = assay: Antiproliferative activity against human ASPC1 cells harboring KRAS G12D mutant assessed as inhibition of cell viability incubated for 5 days by Cell Titer Glo assay; type: functional, cell-based; conditions: ASPC1, 120 h
SNU1 = assay: Antiproliferative activity against human SNU1 cells harboring KRAS G12D mutant assessed as inhibition of cell viability incubated for 5 days by Cell Titer Glo assay; type: functional, cell-based; conditions: SNU1, 120 h
HPAF-II = assay: Antiproliferative activity against human HPAF-II cells harboring KRAS G12D mutant assessed as inhibition of cell viability incubated for 5 days by Cell Titer Glo assay; type: functional, cell-based; conditions: 120 h
AGS = assay: Antiproliferative activity against human AGS cells harboring KRAS G12D mutant assessed as inhibition of cell viability incubated for 5 days by Cell Titer Glo assay; type: functional, cell-based; conditions: 120 h
Panc 04.03 = assay: Antiproliferative activity against human Panc 04.03 cells harboring KRAS G12D mutant assessed as inhibition of cell viability incubated for 5 days by Cell Titer Glo assay; type: functional, cell-based; conditions: Panc 04.03, 120 h
NCI-H358 = assay: Antiproliferative activity against human NCI-H358 cells harboring KRAS G12C mutant assessed as inhibition of cell viability incubated for 5 days by Cell Titer Glo assay; type: functional, cell-based; conditions: NCI-H358, 120 h
NCI-H1975 = assay: Antiproliferative activity against human NCI-H1975 cells harboring wild-type KRAS assessed as inhibition of cell viability incubated for 5 days by Cell Titer Glo assay; type: functional, cell-based; conditions: NCI-H1975, 120 h
[8] = Drug uptake in human ASPC1 cells at 10 uM incubated for 1 hr by MS analysis; type: ADME, cell-based; conditions: aspc1, 1 h
[9] = Selectivity index, ratio of IC50 for human ASPC1 cells assessed as inhibition of cell viability incubated for 6 hrs followed by compound washout measured after 114 hrs by Cell Titer Glo assay to IC50 for human ASPC1 cells assessed as inhibition of cell viability incubated for 120 hrs of continuous treatment by Cell Titer Glo assay; type: functional
[10] = system: von Hippel-Lindau disease tumor suppressor/GTPase KRas (Homo sapiens), P01116+P40337 [G12D]; assay: PROTAC activity at VHL/KRAS G12D mutant in human ASPC1 cells assessed as decrease in pERK level at 1 uM incubated for 6 hrs followed by compound washout measured for <4 hrs by Western blot analysis; type: cell-based
ASPC1 [11] = assay: Antiproliferative activity against human ASPC1 cells assessed as inhibition of cell viability incubated for 6 hrs followed by compound washout measured after 114 hrs by Cell Titer Glo assay; type: functional, cell-based
ASPC1 [12] = assay: Antiproliferative activity against human ASPC1 cells assessed as inhibition of cell viability incubated for 120 hrs of continuous treatment by Cell Titer Glo assay; type: functional, cell-based; conditions: ASPC1, 120 h

Sequence of von Hippel-Lindau disease tumor suppressor/GTPase KRas (P01116 whole entry G12D, stated change not applied): as the sequence (P01116 whole entry G12D) above
Sequence of von Hippel-Lindau disease tumor suppressor/GTPase KRas (P40337 whole entry, stated change not applied): as the sequence (P40337 whole entry partner) above

CCc1c(F)ccc2cc(O)cc(-c3ncc4c(N5C[C@H]6CC[C@@H](C5)N6)nc(OC[C@@H]5C[C@@H](F)CN5CCCCOCC(=O)N[C@H](C(=O)N5C[C@H](O)C[C@H]5C(=O)N[C@@H](C)c5ccc(-c6scnc6C)cc5)C(C)(C)C)nc4c3F)c12
DC50 ([1]; read-out: DC50): 87.2 nM | Emax [2]: 96.2%

CCc1cccc2cc(O)cc(-c3ncc4c(N5C[C@H]6CC[C@@H](C5)N6)nc(OC[C@@H]5CCCN5CCCCCC(=O)N[C@H](C(=O)N5C[C@H](O)C[C@H]5C(=O)N[C@@H](C)c5ccc(-c6scnc6C)cc5)C(C)(C)C)nc4c3F)c12
DC50 ([1]; read-out: DC50): 1200 nM | Emax [2]: 89.7%

CCc1cccc2cc(O)cc(-c3ncc4c(N5C[C@H]6CC[C@@H](C5)N6)nc(OC[C@@H]5CCCN5C)nc4c3F)c12
IC50 (GTPase KRas): 5.8 nM

CCc1cccc2cc(O)cc(-c3ncc4c(N5C[C@H]6CC[C@@H](C5)N6)nc(OC[C@@H]5CCCN5CCCOCCC(=O)N[C@H](C(=O)N5C[C@H](O)C[C@H]5C(=O)N[C@@H](C)c5ccc(-c6scnc6C)cc5)C(C)(C)C)nc4c3F)c12
DC50 ([1]; read-out: DC50): 132 nM | Emax [2]: 98.1% | IC50 [3]: 908 nM | IC50 [4]: 25.4 nM | Ratio IC50 [5]: 35.7

CC(=O)N[C@H](C(=O)N1C[C@H](O)C[C@H]1C(=O)N[C@@H](C)c1ccc(-c2scnc2C)cc1)C(C)(C)C
IC50 [3]: 343 nM | IC50 [4]: 380 nM | Ratio IC50 [5]: 0.9

CCc1c(F)ccc2cc(O)cc(-c3ncc4c(N5C[C@H]6CC[C@@H](C5)N6)nc(OC[C@@H]5CCCN5CCCCOCC(=O)N[C@H](C(=O)N5C[C@@H](O)C[C@H]5C(=O)N[C@@H](C)c5ccc(-c6scnc6C)cc5)C(C)(C)C)nc4c3F)c12
Activity (Homo sapiens): inactive | Activity [6]: inactive | IC50 (ASPC1 [7]): > 2000 nM | IC50 (SNU1): 927 nM | IC50 (HPAF-II): > 4000 nM | IC50 (AGS): 955 nM | IC50 (Panc 04.03): 3360 nM | IC50 (NCI-H358): > 10000 nM | IC50 (NCI-H1975): > 10000 nM

CCc1cccc2cc(O)cc(-c3ncc4c(N5C[C@H]6CC[C@@H](C5)N6)nc(OC[C@@H]5CCCN5CCCCCCCCC(=O)N[C@H](C(=O)N5C[C@H](O)C[C@H]5C(=O)N[C@@H](C)c5ccc(-c6scnc6C)cc5)C(C)(C)C)nc4c3F)c12
DC50 ([1]; read-out: DC50): 165 nM | Emax [2]: 89.3%

CCc1cccc2cc(O)cc(-c3ncc4c(N5C[C@H]6CC[C@@H](C5)N6)nc(OC[C@@H]5CCCN5CCCCCCCC(=O)N[C@H](C(=O)N5C[C@H](O)C[C@H]5C(=O)N[C@@H](C)c5ccc(-c6scnc6C)cc5)C(C)(C)C)nc4c3F)c12
DC50 ([1]; read-out: DC50): 2260 nM | Emax [2]: 82.4%

CCc1cccc2cc(O)cc(-c3ncc4c(N5C[C@H]6CC[C@@H](C5)N6)nc(OC[C@@H]5CCCN5CCCCOCC(=O)N[C@H](C(=O)N5C[C@H](O)C[C@H]5C(=O)N[C@@H](C)c5ccc(-c6scnc6C)cc5)C(C)(C)C)nc4c3F)c12
DC50 ([1]; read-out: DC50): 164 nM | Emax [2]: 99.4% | IC50 [3]: 407 nM | IC50 [4]: 18.9 nM | Ratio IC50 [5]: 21.5 | Drug uptake [8]: Active

CCc1cccc2cc(O)cc(-c3ncc4c(N5C[C@H]6CC[C@@H](C5)N6)nc(OC[C@@H]5CCCN5CCC(=O)NCCC(=O)N[C@H](C(=O)N5C[C@H](O)C[C@H]5C(=O)N[C@@H](C)c5ccc(-c6scnc6C)cc5)C(C)(C)C)nc4c3F)c12
DC50 ([1]; read-out: DC50): 3810 nM | Emax [2]: 83.6% | IC50 [3]: 2270 nM | IC50 [4]: 29.8 nM | Ratio IC50 [5]: 76.2 | Drug uptake [8]: Active

CCc1cccc2cc(O)cc(-c3ncc4c(N5C[C@H]6CC[C@@H](C5)N6)nc(OC[C@@H]5CCCN5C[C@H]5CC[C@H](C(=O)N[C@H](C(=O)N6C[C@H](O)C[C@H]6C(=O)N[C@@H](C)c6ccc(-c7scnc7C)cc6)C(C)(C)C)CC5)nc4c3F)c12
DC50 [1]: Not Active | Emax [2]: inactive

CCc1cccc2cc(O)cc(-c3ncc4c(N5C[C@H]6CC[C@@H](C5)N6)nc(OC[C@@H]5CCCN5CCCCOCCC(=O)N[C@H](C(=O)N5C[C@H](O)C[C@H]5C(=O)N[C@@H](C)c5ccc(-c6scnc6C)cc5)C(C)(C)C)nc4c3F)c12
DC50 ([1]; read-out: DC50): 1310 nM | Emax [2]: 90.2%

C#Cc1c(F)ccc2cc(O)cc(-c3ncc4c(N5C[C@H]6CC[C@@H](C5)N6)nc(OC[C@@H]5CCCN5CCCCOCC(=O)N[C@H](C(=O)N5C[C@H](O)C[C@H]5C(=O)N[C@@H](C)c5ccc(-c6scnc6C)cc5)C(C)(C)C)nc4c3F)c12
DC50 ([1]; read-out: DC50): 116 nM | Emax [2]: 99.5%

CCc1cccc2cc(O)cc(-c3ncc4c(N5C[C@H]6CC[C@@H](C5)N6)nc(OC[C@@H]5CCCN5C5CCC6(CC5)CCN(CC(=O)N[C@H](C(=O)N5C[C@H](O)C[C@H]5C(=O)N[C@@H](C)c5ccc(-c7scnc7C)cc5)C(C)(C)C)CC6)nc4c3F)c12
Emax [2]: 53.9%

CCc1cccc2cc(O)cc(-c3ncc4c(N5C[C@H]6CC[C@@H](C5)N6)nc(OC[C@@H]5CCCN5CCOCCC(=O)N[C@H](C(=O)N5C[C@H](O)C[C@H]5C(=O)N[C@@H](C)c5ccc(-c6scnc6C)cc5)C(C)(C)C)nc4c3F)c12
DC50 ([1]; read-out: DC50): 1820 nM | Emax [2]: 89.5%

CCc1cccc2cc(O)cc(-c3ncc4c(N5C[C@H]6CC[C@@H](C5)N6)nc(OC[C@@H]5CCCN5C5CC6(CCN(CC(=O)N[C@H](C(=O)N7C[C@H](O)C[C@H]7C(=O)N[C@@H](C)c7ccc(-c8scnc8C)cc7)C(C)(C)C)CC6)C5)nc4c3F)c12
DC50 ([1]; read-out: DC50): 134 nM | Emax [2]: 85.1%

CCc1cccc2cc(O)cc(-c3ncc4c(N5C[C@H]6CC[C@@H](C5)N6)nc(OC[C@@H]5CCCN5CCCCCCC(=O)N[C@H](C(=O)N5C[C@H](O)C[C@H]5C(=O)N[C@@H](C)c5ccc(-c6scnc6C)cc5)C(C)(C)C)nc4c3F)c12
DC50 ([1]; read-out: DC50): 572 nM | Emax [2]: 98.9%

CCc1c(F)ccc2cc(O)cc(-c3ncc4c(N5C[C@H]6CC[C@@H](C5)N6)nc(OC[C@@H]5CCCN5C)nc4c3F)c12
Ratio IC50 [9]: 21.14 | Activity [10]: Active | IC50 (ASPC1 [11]): 2940 nM | IC50 (ASPC1 [12]): 139 nM | IC50 (ASPC1 [7]): 154 nM | IC50 (SNU1): 29.8 nM | IC50 (HPAF-II): 165 nM | IC50 (AGS): 20.1 nM | IC50 (Panc 04.03): 112 nM | IC50 (NCI-H358): > 10000 nM | IC50 (NCI-H1975): > 10000 nM

CCc1cccc2cc(O)cc(-c3ncc4c(N5C[C@H]6CC[C@@H](C5)N6)nc(OC[C@@H]5CCCN5CC5CCN(CCC(=O)N[C@H](C(=O)N6C[C@H](O)C[C@H]6C(=O)N[C@@H](C)c6ccc(-c7scnc7C)cc6)C(C)(C)C)CC5)nc4c3F)c12
Emax [2]: 29.8% | IC50 [3]: 2160 nM | IC50 [4]: 80.4 nM | Ratio IC50 [5]: 26.9

CCc1cccc2cc(O)cc(-c3ncc4c(N5C[C@H]6CC[C@@H](C5)N6)nc(OC[C@@H]5CCCN5CCCCC(=O)N[C@H](C(=O)N5C[C@H](O)C[C@H]5C(=O)N[C@@H](C)c5ccc(-c6scnc6C)cc5)C(C)(C)C)nc4c3F)c12
DC50 ([1]; read-out: DC50): 1010 nM | Emax [2]: 96.7%

From ChEMBL document CHEMBL5537171, “Design, Synthesis, and Biological Evaluation of Potent and Selective PROTAC Degraders of Oncogenic KRASG12D” (J Med Chem, 2024)
